According to paper PMC3643815 (Combinatorial chemistry & high throughput screening, 2011):
Counter-ions that a name gives are not always drawn. Like-named read-outs stand apart in the source and are kept apart here.

Assays:
[1] = Solubility by laser nephelometry; conditions: dilutions up to 77 μM
[2] = target: T1, human Cdc7-Dbf4 kinase (Cdc7-Dbf4 heterodimer) (Homo sapiens, UniProt O00311); assay: Cdc7-Dbf4 kinase assay with the SPA method; assay type: biochemical; conditions: 45 mM EDTA in 1% DMSO, 25 μM [γ-33P]-ATP
T1 sequence (O00311 whole entry): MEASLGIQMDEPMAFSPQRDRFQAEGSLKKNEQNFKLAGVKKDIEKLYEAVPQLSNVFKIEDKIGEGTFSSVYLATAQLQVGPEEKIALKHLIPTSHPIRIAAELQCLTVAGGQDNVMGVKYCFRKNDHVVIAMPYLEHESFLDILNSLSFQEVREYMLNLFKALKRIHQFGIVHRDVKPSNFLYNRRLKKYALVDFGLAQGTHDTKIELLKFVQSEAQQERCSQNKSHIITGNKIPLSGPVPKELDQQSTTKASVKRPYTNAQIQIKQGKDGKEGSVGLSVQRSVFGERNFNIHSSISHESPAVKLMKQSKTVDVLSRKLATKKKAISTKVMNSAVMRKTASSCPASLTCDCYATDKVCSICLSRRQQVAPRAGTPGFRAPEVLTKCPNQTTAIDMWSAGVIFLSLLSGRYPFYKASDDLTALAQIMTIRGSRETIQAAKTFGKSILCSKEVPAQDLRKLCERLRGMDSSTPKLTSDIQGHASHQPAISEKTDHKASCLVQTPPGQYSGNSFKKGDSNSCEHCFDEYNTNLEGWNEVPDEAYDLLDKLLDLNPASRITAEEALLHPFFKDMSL
T1 sequence (Q9UBU7 whole entry partner): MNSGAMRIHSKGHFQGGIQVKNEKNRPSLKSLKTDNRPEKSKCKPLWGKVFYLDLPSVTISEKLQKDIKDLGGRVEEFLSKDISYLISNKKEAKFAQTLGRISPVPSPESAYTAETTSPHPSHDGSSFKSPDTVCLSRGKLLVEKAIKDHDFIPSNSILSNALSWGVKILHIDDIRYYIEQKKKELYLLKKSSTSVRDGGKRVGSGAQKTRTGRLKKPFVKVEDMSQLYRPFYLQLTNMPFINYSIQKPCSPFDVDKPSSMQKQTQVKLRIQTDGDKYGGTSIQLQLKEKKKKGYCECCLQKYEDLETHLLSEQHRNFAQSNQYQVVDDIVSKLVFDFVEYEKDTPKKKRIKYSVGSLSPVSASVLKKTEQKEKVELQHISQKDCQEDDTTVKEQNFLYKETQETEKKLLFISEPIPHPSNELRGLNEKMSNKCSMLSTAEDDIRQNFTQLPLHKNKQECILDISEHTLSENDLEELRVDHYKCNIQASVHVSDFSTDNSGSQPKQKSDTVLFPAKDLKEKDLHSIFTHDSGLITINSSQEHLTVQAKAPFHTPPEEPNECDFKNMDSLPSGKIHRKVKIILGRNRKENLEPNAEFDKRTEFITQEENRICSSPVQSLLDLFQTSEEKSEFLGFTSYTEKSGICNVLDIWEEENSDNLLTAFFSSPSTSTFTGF

[3] = target: T1, human Cdc7-Dbf4 kinase (Cdc7-Dbf4 heterodimer); assay: Cdc7-Dbf4 kinase assay with the LUM method; assay type: biochemical; conditions: for ADP production IC50: LUM method, 12.5 μM ATP, up to 77 μM compound, duplicate, N.E. = no effect
[4] = system: ADP processing (ATP depletion, ATP regeneration, luciferase reaction); assay: Dose response in the ADP processing step of the LUM method; assay type: biochemical
[5] = system: luminescence detection (luciferase luminescence signal); assay: Dose response in the luminescence detection step of the LUM method

Row | Compound | Solubility [1] | ADP production IC50 [3] | further results
1 | O=C(O)/C=C/c1ccc(O)c(O)c1 [Caffeic acid] | Soluble | – | –
2 | O=C(O)CN(CCN(CC(=O)O)CC(=O)O)CC(=O)O [EDTA] | – | – | inhibition of Cdc7-Dbf4 kinase activity (control selection) [2]: inhibited the Cdc7-Dbf4 kinase activity
3 | O=c1oc2c(O)c(O)cc3c(=O)oc4c(O)c(O)cc1c4c23 [Ellagic acid] | Soluble | – | –
4 | CCOC(=O)[C@H](CCc1ccccc1)N[C@@H](C)C(=O)N1CCC[C@H]1C(=O)O [Enalapril maleate, reference compound] | Soluble | N.E. ^1 | –
5 | O=C(O[C@@H]1Cc2c(O)cc(O)cc2O[C@@H]1c1cc(O)c(O)c(O)c1)c1cc(O)c(O)c(O)c1 [Epigallocatechin-3-monogallate] | Soluble | – | –
6 | O=c1c(O)c(-c2ccc(O)c(O)c2)oc2cc(O)ccc12 [Fisetin] | Soluble | N.E. | –
7 | CN(C)c1ccc(C(=C2C=CC(=[N+](C)C)C=C2)c2ccc(N(C)C)cc2)cc1 [Gentian violet, reference compound] | Soluble | – | inhibition at 10 µM ([3]; read-out: averaged percent inhibition (two data sets)): 23%; inhibition at 10 µM ([3]; read-out: percent inhibition, Set 1): 23%; inhibition at 10 µM ([3]; read-out: percent inhibition, Set 2): 23%
8 | O=C1C=C2CC3(O)COc4c(ccc(O)c4O)C3=C2C=C1O (stereo not drawn) [Hematein] | Soluble | – | –
9 | O=c1cc(-c2cc(O)c(O)c(O)c2)oc2cc(O)cc(O)c12 [Hieracin] | Soluble | N.E. | –
10 | O=C(CCCCC(=O)Nc1c(I)cc(I)c(C(=O)O)c1I)Nc1c(I)cc(I)c(C(=O)O)c1I [Iodipamide, reference compound] | Soluble | N.E. | –
11 | O=c1c(-c2cc(O)c(O)c(O)c2)coc2cc(O)c(O)c(O)c12 [Irigenol] | Soluble | – | –
12 | CC(=O)Oc1cc(-c2coc3cc(OC(C)=O)c(OC(C)=O)c(OC(C)=O)c3c2=O)cc(OC(C)=O)c1OC(C)=O [Iriginol hexaaceatate] | Soluble | – | –
13 | O=c1c(O)c(-c2cc(O)c(O)c(O)c2)oc2cc(O)cc(O)c12 [Myricetin] | Soluble | – | –
14 | N=C1C=CC(=C(c2ccc(N)cc2)c2ccc(N)cc2)C=C1 [Pararosaniline pamoate, reference compound] | Soluble | – | –
15 | O=c1c(O)cccc2cc(O)c(O)c(O)c12 [Purpurogallin] | Soluble | N.E. ^1 | –
16 | O=c1c(O)c(-c2ccc(O)c(O)c2)oc2cc(O)cc(O)c12 [Quercetin] | Soluble | – | –
17 | O=C(O[C@@H]1Cc2c(O)cc(O)cc2O[C@@H]1c1cc(O)c(=O)c2c(O)c(O)cc([C@H]3Oc4cc(O)cc(O)c4C[C@H]3O)c2c1)c1cc(O)c(O)c(O)c1 [Theaflavin monogallates] | Soluble | – | –
18 | Pyrogallin | Soluble | N.E. | –
19 | Tannic acid | Soluble | – | percent inhibition, Set 1 ([3]; LUM method pilot screen, 10 μM compound in 1% DMSO, Set 1 of duplicate): 46%; percent inhibition, Set 2 ([3]; LUM method pilot screen, 10 μM compound in 1% DMSO, Set 2 of duplicate): 52%; averaged percent inhibition (two data sets) ([3]; LUM method pilot screen, 10 μM compound, average of duplicate): 49%; concentration at which ATP depletion is inhibited [4]: higher than 0.2 μM; concentration at which compound inhibits luminescence detection [5]: 10 µM
